This is an account of results in patent publication US10344025B2, “GLS1 inhibitors for treating disease” (Board of Regents, The University of Texas System, priority 2014, dated 2019).

Structures are written as SMILES.

The target in experiment [1] is purified recombinant human GAC (GLS1) (Homo sapiens (Human), UniProt O94925). As to the kind of experiment: GLS1 Enzymatic Activity Assay (dual-coupled enzymatic assay, resorufin/Amplex UltraRed readout).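 Further: glutamate from GAC coupled via glutamate oxidase and peroxidase to resorufin, read as fluorescence (ex 530, em 590 nm) kinetically or at 20 min, four-parameter logistic IC50 fit.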 It is filed as biochemical.
The next experiment concerns A549 cells. The experiment is described as follows: Proliferation Assay (A549 viability, Cell Titer Fluor, 72 hours). The conditions noted are these: Homo sapiens, A549, 72 h. It is filed as cell-based. The procedure, abridged:
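Cell Titer Fluor fluorescence after 72 h compound treatment (0.5% DMSO, 37 °C, 5% CO2) of A549 cells plated 24 h earlier at 1000/well. Four-parameter logistic fitting gave IC50.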

Sequence of purified recombinant human GAC (GLS1) (O94925 other isoform, or with tags, fused parts or gaps): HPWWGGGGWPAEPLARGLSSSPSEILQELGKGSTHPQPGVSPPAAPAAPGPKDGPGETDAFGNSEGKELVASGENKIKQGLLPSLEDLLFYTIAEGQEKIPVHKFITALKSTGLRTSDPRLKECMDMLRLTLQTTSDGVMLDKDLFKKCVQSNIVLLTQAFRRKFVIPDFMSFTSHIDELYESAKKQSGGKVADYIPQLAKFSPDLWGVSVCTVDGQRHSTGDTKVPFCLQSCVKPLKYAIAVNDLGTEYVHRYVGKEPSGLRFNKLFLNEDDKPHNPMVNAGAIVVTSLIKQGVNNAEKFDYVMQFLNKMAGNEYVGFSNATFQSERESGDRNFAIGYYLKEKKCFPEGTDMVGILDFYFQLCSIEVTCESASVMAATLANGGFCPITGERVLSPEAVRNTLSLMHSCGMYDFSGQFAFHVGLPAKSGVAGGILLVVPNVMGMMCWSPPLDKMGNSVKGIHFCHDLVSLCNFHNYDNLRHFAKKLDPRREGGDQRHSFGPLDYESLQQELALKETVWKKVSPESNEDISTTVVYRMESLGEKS

Consider `CC(C)CC(=O)NCc1cn(CCCCn2cc(C(=O)NCc3cccc(OC(F)(F)F)c3)nn2)nn1` [Example 55, l-(4-{4-[(3-methylbutanamido)methyl]-1H-1,2,3-triazol-1-yl}butyl)-N-{[3-(trifluoromethoxy)phenyl]methyl}-1H-1,2,3-triazole-4-carboxamide], for which, in experiment [1], the IC50 was in the range of 100 to 500 nM. In the experiment on A549 cells, this compound registered an EC50 of 500 to 5000 nM.
For `CC(C)COC(=O)NCc1cn(CCCCn2cc(C(=O)NCc3cccc(OC(F)(F)F)c3)nn2)nn1` [Example 56, 2-methylpropyl N-[(1-{4-[4-({[3-(trifluoromethoxy)phenyl]methyl}carbamoyl)-1H-1,2,3-triazol-1-yl]butyl}-1H-1,2,3-triazol-4-yl)methyl]carbamate], in experiment [1], the half-maximal inhibitory concentration (IC50) was less than 100 nM. The same compound displayed a half-maximal effective concentration (EC50) with A549 cells of less than 100 nM.
In the case of `O=C(NCc1cccc(OC(F)(F)F)c1)c1cn(CCCCc2nnc(C(=O)NCC3CC3)s2)nn1` [Example 59, N-(cyclopropylmethyl)-5-{4-[4-({[3-(trifluoromethoxy)phenyl]methyl}carbamoyl)-1H-1,2,3-triazol-1-yl]butyl}-1,3,4-thiadiazole-2-carboxamide], in experiment [1], the half-maximal inhibitory concentration (IC50) fell in the range of 100 to 500 nM. The EC50 in the experiment on A549 cells was 500 to 5000 nM.
Turning to `Cc1ccc(CNC(=O)c2nnc(CCCCn3cc(C(=O)NCc4cccc(OC(F)(F)F)c4)nn3)s2)cn1` [Example 60, N-[(6-methylpyridin-3-yl)methyl]-5-{4-[4-({[3-(trifluoromethoxy)phenyl]methyl}carbamoyl)-1H-1,2,3-triazol-1-yl]butyl}-1,3,4-thiadiazole-2-carboxamide], the IC50 in experiment [1] is less than 100 nM. Besides, the 50% effective concentration (EC50) in the experiment with A549 cells is less than 100 nM.
Turning to `Cc1ccc(CNC(=O)c2cn(CCCCc3nnc(C(=O)NCc4cccc(OC(F)(F)F)c4)s3)nn2)cn1` [Example 61], the IC50 in experiment [1] is less than 100 nM. Besides, the 50% effective concentration (EC50) in the experiment on A549 cells is less than 100 nM.
Regarding `Cc1ccc(CNC(=O)c2cn(CCCCc3nnc(C(=O)NCc4ccccn4)s3)nn2)cn1` [Example 62, 5-[4-(4-{[(6-methylpyridin-3-yl)methyl]carbamoyl}-1H-1,2,3-triazol-1-yl)butyl]-N-(pyridin-2-ylmethyl)-1,3,4-thiadiazole-2-carboxamide], the IC50 in experiment [1] fell in the range of 100 to 500 nM. In the experiment with A549 cells, this compound yielded a concentration giving a half-maximal response (EC50) of 500 to 5000 nM.
For `Cc1ccc(CNC(=O)c2cn(CCCCc3nnc(C(=O)NCC4CC4)s3)nn2)cn1` [Example 63, N-(cyclopropylmethyl)-5-[4-(4-{[(6-methylpyridin-3-yl)methyl]carbamoyl}-1H-1,2,3-triazol-1-yl)butyl]-1,3,4-thiadiazole-2-carboxamide], the IC50 in experiment [1] was in the range of 100 to 500 nM. The same compound showed an EC50 in the experiment with A549 cells of 500 to 5000 nM.
The corresponding values for `Cc1ccc(CNC(=O)c2cn(CCCCc3nnc(C(=O)NCc4ccc(C)nc4)s3)nn2)cn1` [Example 64, N-[(6-methylpyridin-3-yl)methyl]-5-[4-(4-{[(6-methylpyridin-3-yl)methyl]carbamoyl}-1H-1,2,3-triazol-1-yl)butyl]-1,3,4-thiadiazole-2-carboxamide] are less than 100 nM and 500 to 5000 nM.
On the same counts, the results for `O=C(NCc1ccccn1)c1cn(CCCCc2nnc(C(=O)NCc3cccc(OC(F)(F)F)c3)s2)nn1` [Example 65, 5-(4-{4-[(pyridin-2-ylmethyl)carbamoyl]-1H-1,2,3-triazol-1-yl}butyl)-N-{[3-(trifluoromethoxy)phenyl]methyl}-1,3,4-thiadiazole-2-carboxamide] are less than 100 nM and 100 to 500 nM.
The corresponding values for `Cc1ccc(CNC(=O)c2cn(CCCCn3cc(C(=O)NCc4cccc(OC(F)(F)F)c4)nn3)nn2)cn1` [Example 72, 1-[4-(4-{[(6-methylpyridin-3-yl)methyl]carbamoyl}-1H-1,2,3-triazol-1-yl)butyl]-N-{[3-(trifluoromethoxy)phenyl]methyl}-1H-1,2,3-triazole-4-carboxamide] are less than 100 nM and less than 100 nM.
As to `CC(C)(C)OC(=O)N1CC(CNC(=O)c2nnc(CCCCn3cc(C(=O)NCc4cccc(OC(F)(F)F)c4)nn3)s2)C1` [Example 73, tert-butyl 3-{[(5-{4-[4-({[3-(trifluoromethoxy)phenyl]methyl}carbamoyl)-1H-1,2,3-triazol-1-yl]butyl}-1,3,4-thiadiazol-2-yl)formamido]methyl}azetidine-1-carboxylate], the IC50 in experiment [1] was less than 100 nM. In the experiment with A549 cells, the EC50 is less than 100 nM.
Turning to `O=C(NCc1cccc(OC(F)(F)F)c1)c1cn(CCCCc2nnc(C(=O)NCc3cc(C(F)(F)F)ccn3)s2)nn1` [Example 75, 5-{4-[4-({[3-(trifluoromethoxy)phenyl]methyl}carbamoyl)-1H-1,2,3-triazol-1-yl]butyl}-N-{[4-(trifluoromethyl)pyridin-2-yl]methyl}-1,3,4-thiadiazole-2-carboxamide], the IC50 in experiment [1] is less than 100 nM. The compound further displayed a concentration giving a half-maximal response (EC50) in the experiment with A549 cells of less than 100 nM.
With `O=C(NCc1cccc(OC(F)(F)F)c1)c1cn(CCCCc2nnc(C(=O)NCc3cncc(C(F)(F)F)c3)s2)nn1` [Example 76, 5-{4-[4-({[3-(trifluoromethoxy)phenyl]methyl}carbamoyl)-1H-1,2,3-triazol-1-yl]butyl}-N-{[5-(trifluoromethyl)pyridin-3-yl]methyl}-1,3,4-thiadiazole-2-carboxamide], in experiment [1], the IC50 is less than 100 nM. The compound also had an EC50 in the experiment on A549 cells of less than 100 nM.
As to `O=C(NCc1cccc(OC(F)(F)F)c1)c1cn(CCCCc2nnc(C(=O)NCc3ccc(C(F)(F)F)cn3)s2)nn1` [Example 77, 5-{4-[4-({[3-(trifluoromethoxy)phenyl]methyl}carbamoyl)-1H-1,2,3-triazol-1-yl]butyl}-N-{[5-(trifluoromethyl)pyridin-2-yl]methyl}-1,3,4-thiadiazole-2-carboxamide], the concentration for half-maximal inhibition (IC50) in experiment [1] was less than 100 nM. The EC50 in the experiment with A549 cells was less than 100 nM.
With `O=C(NCc1cccc(OC(F)(F)F)c1)c1cn(CCCCc2nnc(C(=O)NCc3ccc(C(F)(F)F)nc3)s2)nn1` [Example 78, 5-{4-[4-({[3-(trifluoromethoxy)phenyl]methyl}carbamoyl)-1H-1,2,3-triazol-1-yl]butyl}-N-{[6-(trifluoromethyl)pyridin-3-yl]methyl}-1,3,4-thiadiazole-2-carboxamide], the half-inhibitory concentration (IC50) in experiment [1] is less than 100 nM. The EC50 with A549 cells is less than 100 nM.
For `CC(C)(C)OC(=O)N1CC(CNC(=O)c2cn(CCCCn3cc(C(=O)NCc4cccc(OC(F)(F)F)c4)nn3)nn2)C1` [Example 79, tert-butyl 3-{[(1-{4-[4-({[3-(trifluoromethoxy)phenyl]methyl}carbamoyl)-1H-1,2,3-triazol-1-yl]butyl}-1H-1,2,3-triazol-4-yl)formamido]methyl}azetidine-1-carboxylate], the IC50 in experiment [1] is less than 100 nM. The compound further gave an EC50 in the experiment on A549 cells of less than 100 nM.
In the case of `O=C(NCc1cccc(OC(F)(F)F)c1)c1cn(CCCCn2cc(C(=O)NCc3cncc(C(F)(F)F)c3)nn2)nn1` [Example 80, N-(3-(trifluoromethoxy)benzyl)-1-(4-(4-(((5-(trifluoromethyl)pyridin-3-yl)methyl)carbamoyl)-1H-1,2,3-triazol-1-yl)butyl)-1H-1,2,3-triazole-4-carboxamide], the IC50 in experiment [1] is less than 100 nM. In addition, the EC50 in the experiment on A549 cells is less than 100 nM.
As for `O=C(NCc1ccc(C(F)(F)F)nc1)c1cn(CCCCn2cc(C(=O)NCc3cccc(OC(F)(F)F)c3)nn2)nn1` [Example 82, 1-{4-[4-({[3-(trifluoromethoxy)phenyl]methyl}carbamoyl)-1H-1,2,3-triazol-1-yl]butyl}-N-{[6-(trifluoromethyl)pyridin-3-yl]methyl}-1H-1,2,3-triazole-4-carboxamide], the half-inhibitory concentration (IC50) in experiment [1] is less than 100 nM. Also, the EC50 in the experiment on A549 cells is less than 100 nM.
On to `O=C(NCc1cccc(OC(F)(F)F)c1)c1cn(CCCCn2cc(C(=O)NCc3cc(C(F)(F)F)ccn3)nn2)nn1` [Example 83, N-{[3-(trifluoromethoxy)phenyl]methyl}-1-{4-[4-({[4-(trifluoromethyl)pyridin-2-yl]methyl}carbamoyl)-1H-1,2,3-triazol-1-yl]butyl}-1H-1,2,3-triazole-4-carboxamide], for which the half-inhibitory concentration (IC50) in experiment [1] was less than 100 nM. The compound also displayed an EC50 in the experiment on A549 cells of less than 100 nM.
`O=C(NCc1cncc(C(F)(F)F)c1)c1cn(CCCCn2cc(C(=O)NCC3CCCC3)nn2)nn1` [Example 84]: the IC50 in experiment [1] lay in the range of 100 to 500 nM. In addition, the EC50 in the experiment on A549 cells was in the range of 100 to 500 nM.
With `O=C(NCc1cc(C(F)(F)F)ccn1)c1cn(CCCCn2cc(C(=O)NCC3CCC3)nn2)nn1` [Example 85, 1-(4-{4-[(cyclobutylmethyl)carbamoyl]-1H-1,2,3-triazol-1-yl}butyl)-N-{[4-(trifluoromethyl)pyridin-2-yl]methyl}-1H-1,2,3-triazole-4-carboxamide], the IC50 in experiment [1] lay within 500 to 5000 nM. Further, the concentration for a half-maximal effect (EC50) in the experiment on A549 cells fell in the range of 500 to 5000 nM.
In the case of `O=C(NCc1cc(C(F)(F)F)ccn1)c1cn(CCCCn2cc(C(=O)NCC3CCOC3)nn2)nn1` (stereo not drawn) [Example 86], in experiment [1], the IC50 lay in the range of 500 to 5000 nM. In the experiment on A549 cells, this compound displayed a 50% effective concentration (EC50) of more than 5000 nM.
On the same counts, the results for `O=C(NCc1cc(C(F)(F)F)ccn1)c1cn(CCCCn2cc(C(=O)NCC3COC3)nn2)nn1` [Example 87] are 500 to 5000 nM and more than 5000 nM.
The corresponding values for `CNC(=O)c1cn(CCCCn2cc(C(=O)NCc3cc(C(F)(F)F)ccn3)nn2)nn1` [Example 88, 1-{4-[4-(methylcarbamoyl)-1H-1,2,3-triazol-1-yl]butyl}-N-{[4-(trifluoromethyl)pyridin-2-yl]methyl}-1H-1,2,3-triazole-4-carboxamide] are 500 to 5000 nM and 500 to 5000 nM.
The corresponding values for `O=C(NCc1cc(C(F)(F)F)ccn1)c1cn(CCCCn2cc(C(=O)NCC3CC3)nn2)nn1` [Example 89] are 500 to 5000 nM and 500 to 5000 nM.
As for `O=C(NCc1cc(C(F)(F)F)ccn1)c1cn(CCCCn2cc(C(=O)NCC3CCCCC3)nn2)nn1` [Example 90], the half-maximal inhibitory concentration (IC50) in experiment [1] lay in the range of 100 to 500 nM. The compound also registered a concentration giving a half-maximal response (EC50) in the experiment on A549 cells of 100 to 500 nM.
Consider `O=C(NCc1cncc(C(F)(F)F)c1)c1cn(CCCCn2cc(C(=O)NCC3COC3)nn2)nn1` [Example 91, N-(oxetan-3-ylmethyl)-1-{4-[4-({[5-(trifluoromethyl)pyridin-3-yl]methyl}carbamoyl)-1H-1,2,3-triazol-1-yl]butyl}-1H-1,2,3-triazole-4-carboxamide], for which, in experiment [1], the IC50 fell in the range of 500 to 5000 nM. In the experiment with A549 cells, the concentration for a half-maximal effect (EC50) is more than 5000 nM.
